Assay results: paper PMC11505029, “Isatin Bis-Imidathiazole Hybrids Identified as FtsZ Inhibitors with On-Target Activity Against Staphylococcus aureus” (Antibiotics, 2024)

Legend:
[1] = test system: S. aureus ATCC 25923; assay: broth microdilution antimicrobial activity, S. aureus reference strain; format: cell-based, Staphylococcus aureus; details: for IC50 / activity at 100 µM: Staphylococcus aureus; for IC50: ATCC25923, S. aureus ATCC 25923, mean [95% confidence interval]; for activity at 100 µM: ATCC25923, 100 μM, growth relative to positive control, mean ± SD, read-out: Microbial growth, S. aureus
Description: (§1) Reference bacterial strains of Staphylococcus aureus (ATCC 25923), Escherichia coli (ATCC 25922), and Candida albicans (ATCC 10231) were used in this study as Gram-positive, Gram-negative, and fungal models, respectively. These reference strains were purchased from the American Type Culture Collection (ATCC, Manassas, VA, USA); bacterial cultures were routinely grown at 37 °C on 5% blood agar plate, while fungal cultures on Sabouraud Dextrose Agar (Biolife Italiana S.r.l., Milan, Italy).
(§2) The dry powder of the isatin derivatives was resuspended in dimethylsulfoxide (DMSO) at 20 mM and used as stock solutions. For biological investigations, compounds were used in the range 100–0.78 µM, and the solvent in the corresponding percentage range.
(§3) The antimicrobial activity of the compounds was assessed by a well-established broth microdilution procedure in microtiter plates and in compliance with the Clinical and laboratory Standard Institute (CLSI) guidelines (Clinical and Laboratory Standards Institute, Wayne, PA, USA). In short, microbial inocula were prepared at 0.5 McFarland in PBS and, subsequently, bacterial suspensions were diluted 1:200 in Mueller–Hinton broth (Sigma-Aldrich, St. Louis, MO, USA), while fungal inoculum was diluted 1:20 in RPMI-1640 medium (Gibco®, ThermoFisher Scientific Inc., Waltham, MA, USA), containing 2% glucose and 0.3% levo-glutamine buffered to pH 7.0 with 0.165 M 3-(N-morpholino)propanesulfonic acid (MOPS). A total of 100 µL of these microbial suspensions were introduced in a 96-well microplate and incubated with 100 µL of the compounds, two-fold serially diluted in the range of 100–0.19 µM. Positive controls (microbial suspensions in regular media), negative controls (only compounds), and solvent controls (microbial suspensions incubated with DMSO dilutions) were included in the tests. The plate was incubated at 37 °C for 24 h, and subsequently, the optical density at 630 nm (OD630nm) was spectrophotometrically measured. Each experiment was carried out with three technical replicates (i.e., three wells per sample) and repeated at least two times for statistical power. […] IC50 values, corresponding to the concentration of the compound giving rise to an inhibition of growth of 50%, were obtained by interpolation on dose–response curves generated by plotting the percentages of growth inhibition, relative to the positive control (set to 100% of growth), as a function of the tested concentrations (on a logarithm scale). Statistical analysis was carried out using GraphPad Prism version 9.4.1 for Windows (GraphPad Software, San Diego, CA, USA, www.graphpad.com).

[2] = test system: E. coli ATCC 25922; assay: broth microdilution antimicrobial activity, E. coli reference strain; format: cell-based, Escherichia coli; details: Escherichia coli, ATCC25922; 100 μM; growth relative to positive control; mean ± SD; read-out: Microbial growth, E. coli
Description: as §1, §2, §3

[3] = test system: C. albicans ATCC 10231; assay: broth microdilution antimicrobial activity, C. albicans reference strain; format: cell-based, Candida albicans; details: Candida albicans, ATCC10231; 100 μM; growth relative to positive control; mean ± SD; read-out: Microbial growth, C. albicans
Description: as §1, §2, §3

[4] = test system: Vero cell line (ATCC CCL-81); assay: cell viability and proliferation assay (WST8/CCK-8); format: cell-based; details: Chlorocebus sabaeus, Vero, 48 h; 100 μM; viability relative to untreated controls; mean ± SD; read-out: Cell proliferation, Vero
Description: (§4) Vero cell line (ATCC CCL-81) was selected as the model system to assess the effect of the isatin hybrids on normal epithelial cells, and a previously established protocol was used with minor modifications. Briefly, cells were cultured in RPMI-1640 medium supplemented with 10% fetal bovine serum (FBS) (Carlo Erba Reagents, Milan, Italy), 100 U/mL penicillin, and 100 µg/mL streptomycin at 37 °C with 5% CO2. For experiments, cells were seeded into 96-well plates at 10^4 cells/well, and incubated at 37 °C for 24 h. Following washes with PBS, the cell monolayer was incubated with 100 µL of medium containing the 2-fold serial dilutions of the compounds. Both untreated cells and cells incubated with medium containing solvent dilutions were included in each experiment as controls. The cell viability was assessed by a WST8-based assay according to the manufacturer’s instructions (CCK-8, Cell Counting Kit-8, Dojindo Molecular Technologies, Rockville, MD, USA). After 48 h of incubation, culture medium was removed from each well, the monolayer was washed with PBS, and 100 µL of fresh medium containing 10 µL of CCK-8 solution were added. After 2 h at 37 °C, the OD450nm was read, and data were expressed as the percentage of the cell viability relative to the untreated controls. The CC50 was obtained from the corresponding dose–response curves generated, as previously reported for IC50 values.

[5] = as above; format: cell-based; details: African green monkey, Vero cells (ATCC CCL-81); Vero cells; mean [95% confidence interval]
Description: as §4

Structure (SMILES)	IC50 [1]	activity at 100 µM [1]	activity at 100 µM [2]	activity at 100 µM [3]	viability at 100 µM [4]	SI (selectivity index, CC50/IC50) ([1]; CC50 Vero / IC50 S. aureus)	CC50 at 48 h [5]
CC1(C)S[C@@H]2[C@H](NC(=O)[C@H](N)c3ccccc3)C(=O)N2[C@H]1C(=O)O [AMP, ampicillin, reference compound]	2.56 µM						
COc1ccc2c(c1)C(c1c(Cl)nc3sc(C)cn13)(c1c(Cl)nc3sc(C)cn13)C(=O)N2 [Compound 3, 3,3-bis(6-Chloro-2-methylimidazo[2,1-b]thiazol-5-yl)-5-methoxyindolin-2-one]		104 ± 8.5%	97 ± 1.8%	101 ± 3.6%	90.3 ± 4.2%		
Cc1cn2c(C3(c4c(Cl)nc5sc(C)cn45)C(=O)N(Cc4ccc(Cl)cc4)c4ccccc43)c(Cl)nc2s1 [Compound 4, 3,3-bis(6-Chloro-2-methylimidazo[2,1-b]thiazol-5-yl)-1-(4-chlorobenzyl)indolin-2-one]		98.7 ± 0.8%	99 ± 2.9%	125 ± 6.3%	116 ± 4%		
O=C1Nc2ccc(F)cc2C1(c1c(Cl)nc2sccn12)c1c(Cl)nc2sccn12 [Compound 5, 3,3-bis(6-Chloroimidazo[2,1-b]thiazol-5-yl)-5-fluoroindolin-2-one]	75.6 µM	< 30%	98.9 ± 1.4%	102 ± 1.5%	43.5 ± 3.3%	1.5	116 µM
Cc1cn2c(C3(c4c(Cl)nc5sc(C)cn45)C(=O)Nc4ccc(F)cc43)c(Cl)nc2s1 [Compound 6, 3,3-bis(6-Chloro-2-methylimidazo[2,1-b]thiazol-5-yl)-5-fluoroindolin-2-one]		101 ± 10.1%	98.7 ± 0.9%	101 ± 1.9%	38.2 ± 1.5%		
O=C1Nc2cc(F)ccc2C1(c1c(Cl)nc2sccn12)c1c(Cl)nc2sccn12 [Compound 7, 3,3-bis(6-Chloroimidazo[2,1-b]thiazol-5-yl)-6-fluoroindolin-2-one]		76.9 ± 1.5%	106 ± 2.1%	81.1 ± 0.7%	88.2 ± 1.9%		
Cc1cn2c(C3(c4c(Cl)nc5sc(C)cn45)C(=O)Nc4cc(F)ccc43)c(Cl)nc2s1 [Compound 8, 3,3-bis(6-Chloro-2-methylimidazo[2,1-b]thiazol-5-yl)-6-fluoroindolin-2-one]		97.9 ± 2.8%	99.8 ± 2.6%	64.2 ± 4.3%	75.2 ± 2.5%		
O=C1Nc2cc(I)ccc2C1(c1c(Cl)nc2sccn12)c1c(Cl)nc2sccn12 [Compound 9, 3,3-bis(6-Chloroimidazo[2,1-b]thiazol-5-yl)-6-iodoindolin-2-one]		80.2 ± 2.6%	98.3 ± 2.5%	63.7 ± 1.2%	98.2 ± 1.5%		
Cc1cn2c(C3(c4c(Cl)nc5sc(C)cn45)C(=O)Nc4cc(I)ccc43)c(Cl)nc2s1 [Compound 10, 3,3-bis(6-Chloro-2-methylimidazo[2,1-b]thiazol-5-yl)-6-iodoindolin-2-one]		87.7 ± 2.5%	94.3 ± 2.7%	59.6 ± 0.4%	78.8 ± 5.5%		
Cc1cn2c(C3(c4c(Cl)nc5sc(C)cn45)C(=O)Nc4cc(OC(F)(F)F)ccc43)c(Cl)nc2s1 [Compound 12, 3,3-bis(6-Chloro-2-methylimidazo[2,1-b]thiazol-5-yl)-6-(trifluoromethoxy)indolin-2-one]		110 ± 12.8%	96.6 ± 1%	118.1 ± 0.2%	56.1 ± 1.1%		
